Test results from ChEMBL document CHEMBL2062464, “Allosteric modulation of seven transmembrane spanning receptors: theory, practice, and opportunities for central nervous system drug discovery” (J Med Chem, 2012).

How the values were obtained:
[1] = molecular target: T1, Adenosine receptor A1 (Homo sapiens) (UniProt P30542); assay: Allosteric modulation at adenosine A1 receptor assessed as receptor mediated ERK1/2 phosphorylation
T1 sequence (whole entry): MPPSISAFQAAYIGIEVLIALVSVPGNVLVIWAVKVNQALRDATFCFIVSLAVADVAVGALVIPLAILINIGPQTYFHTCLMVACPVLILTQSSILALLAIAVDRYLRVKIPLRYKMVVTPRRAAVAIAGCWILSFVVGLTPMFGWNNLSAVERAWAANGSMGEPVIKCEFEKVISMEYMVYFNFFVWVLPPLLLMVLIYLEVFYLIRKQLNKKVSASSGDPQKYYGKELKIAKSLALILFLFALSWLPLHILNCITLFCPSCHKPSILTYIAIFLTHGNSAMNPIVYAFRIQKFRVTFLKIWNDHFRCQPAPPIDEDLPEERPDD

[2] = molecular target: T2, Muscarinic acetylcholine receptor M5 (Homo sapiens) (UniProt P08912); assay: Positive allosteric modulation activity at muscarinic M5 receptor relative to acetylcholine
T2 sequence (whole entry): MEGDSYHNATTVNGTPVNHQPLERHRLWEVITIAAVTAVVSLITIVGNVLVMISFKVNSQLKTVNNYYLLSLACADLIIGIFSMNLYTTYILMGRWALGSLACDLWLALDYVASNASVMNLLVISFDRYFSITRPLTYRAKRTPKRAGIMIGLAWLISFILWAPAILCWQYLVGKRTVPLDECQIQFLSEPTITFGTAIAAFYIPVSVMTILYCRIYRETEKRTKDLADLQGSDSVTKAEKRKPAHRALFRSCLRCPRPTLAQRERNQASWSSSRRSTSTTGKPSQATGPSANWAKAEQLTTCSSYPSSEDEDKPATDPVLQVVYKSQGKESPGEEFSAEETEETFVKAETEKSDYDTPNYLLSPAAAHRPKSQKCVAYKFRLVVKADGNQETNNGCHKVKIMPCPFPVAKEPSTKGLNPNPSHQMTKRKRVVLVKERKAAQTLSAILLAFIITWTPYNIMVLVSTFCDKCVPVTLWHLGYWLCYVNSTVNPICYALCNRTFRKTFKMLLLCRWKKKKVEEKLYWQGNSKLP

[3] = molecular target: Muscarinic acetylcholine receptor M3 (Homo sapiens) (UniProt P20309); assay: Positive allosteric modulation activity at muscarinic M3 receptor relative to acetylcholine
[4] = molecular target: T3, Muscarinic acetylcholine receptor M1 (Homo sapiens) (UniProt P11229); assay: Positive allosteric modulation activity at muscarinic M1 receptor relative to acetylcholine
T3 sequence (whole entry): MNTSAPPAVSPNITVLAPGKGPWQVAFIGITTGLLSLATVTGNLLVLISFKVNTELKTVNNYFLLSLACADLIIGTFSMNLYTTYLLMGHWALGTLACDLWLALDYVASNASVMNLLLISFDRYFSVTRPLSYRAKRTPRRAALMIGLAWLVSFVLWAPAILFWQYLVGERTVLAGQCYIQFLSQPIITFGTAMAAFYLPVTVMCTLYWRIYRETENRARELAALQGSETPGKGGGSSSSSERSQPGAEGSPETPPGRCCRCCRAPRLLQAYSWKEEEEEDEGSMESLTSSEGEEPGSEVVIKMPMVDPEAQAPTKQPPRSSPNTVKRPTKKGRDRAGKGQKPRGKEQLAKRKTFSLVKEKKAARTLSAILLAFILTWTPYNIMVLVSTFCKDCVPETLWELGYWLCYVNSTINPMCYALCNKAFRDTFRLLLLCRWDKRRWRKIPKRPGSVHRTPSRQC

[5] = molecular target: T4, Muscarinic acetylcholine receptor M1 (Homo sapiens, UniProt P11229); assay: Positive allosteric modulation activity at muscarinic M1 receptor
T4 sequence (P11229 whole entry): T3 sequence (whole entry)

[6] = molecular target: T5, Metabotropic glutamate receptor 5 (Homo sapiens, UniProt P41594); assay: Positive allosteric modulation activity at mGlu5 receptor
Target sequence in this assay (P41594 whole entry): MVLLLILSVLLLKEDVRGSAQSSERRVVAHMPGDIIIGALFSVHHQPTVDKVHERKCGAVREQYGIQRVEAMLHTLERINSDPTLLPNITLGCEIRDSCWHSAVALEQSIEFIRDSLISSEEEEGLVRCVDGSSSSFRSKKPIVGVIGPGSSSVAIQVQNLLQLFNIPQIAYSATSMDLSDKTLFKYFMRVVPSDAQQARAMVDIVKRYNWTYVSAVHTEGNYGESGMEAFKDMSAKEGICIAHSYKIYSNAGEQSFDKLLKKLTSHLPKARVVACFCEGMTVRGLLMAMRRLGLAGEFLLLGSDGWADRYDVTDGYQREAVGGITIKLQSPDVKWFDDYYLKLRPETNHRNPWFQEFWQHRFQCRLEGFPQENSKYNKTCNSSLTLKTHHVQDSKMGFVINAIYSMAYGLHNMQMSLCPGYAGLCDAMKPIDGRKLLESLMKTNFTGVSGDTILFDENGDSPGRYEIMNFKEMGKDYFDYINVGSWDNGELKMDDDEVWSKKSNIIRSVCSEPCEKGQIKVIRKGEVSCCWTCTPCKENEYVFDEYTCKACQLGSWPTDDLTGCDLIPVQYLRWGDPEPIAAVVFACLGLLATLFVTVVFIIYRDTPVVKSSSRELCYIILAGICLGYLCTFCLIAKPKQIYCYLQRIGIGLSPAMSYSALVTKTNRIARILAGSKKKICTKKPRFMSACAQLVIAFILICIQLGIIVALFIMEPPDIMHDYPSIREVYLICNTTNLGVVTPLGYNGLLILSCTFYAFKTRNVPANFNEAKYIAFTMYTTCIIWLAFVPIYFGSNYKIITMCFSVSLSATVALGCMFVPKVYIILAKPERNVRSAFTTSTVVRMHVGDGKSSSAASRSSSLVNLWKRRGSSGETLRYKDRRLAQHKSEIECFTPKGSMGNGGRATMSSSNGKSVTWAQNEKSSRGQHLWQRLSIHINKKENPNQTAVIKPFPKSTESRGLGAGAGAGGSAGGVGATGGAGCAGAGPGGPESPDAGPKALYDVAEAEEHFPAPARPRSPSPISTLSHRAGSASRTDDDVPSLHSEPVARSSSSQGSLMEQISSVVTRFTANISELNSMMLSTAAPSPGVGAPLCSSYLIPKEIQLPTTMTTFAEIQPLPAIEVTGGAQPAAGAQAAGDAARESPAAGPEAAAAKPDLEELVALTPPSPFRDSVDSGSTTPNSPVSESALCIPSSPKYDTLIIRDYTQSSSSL

[7] = molecular target: T5, Metabotropic glutamate receptor 5; assay: Positive allosteric modulation activity at mGlu5 receptor relative to glutamate
Target sequence in this assay (P41594 21-1212 limits assumed): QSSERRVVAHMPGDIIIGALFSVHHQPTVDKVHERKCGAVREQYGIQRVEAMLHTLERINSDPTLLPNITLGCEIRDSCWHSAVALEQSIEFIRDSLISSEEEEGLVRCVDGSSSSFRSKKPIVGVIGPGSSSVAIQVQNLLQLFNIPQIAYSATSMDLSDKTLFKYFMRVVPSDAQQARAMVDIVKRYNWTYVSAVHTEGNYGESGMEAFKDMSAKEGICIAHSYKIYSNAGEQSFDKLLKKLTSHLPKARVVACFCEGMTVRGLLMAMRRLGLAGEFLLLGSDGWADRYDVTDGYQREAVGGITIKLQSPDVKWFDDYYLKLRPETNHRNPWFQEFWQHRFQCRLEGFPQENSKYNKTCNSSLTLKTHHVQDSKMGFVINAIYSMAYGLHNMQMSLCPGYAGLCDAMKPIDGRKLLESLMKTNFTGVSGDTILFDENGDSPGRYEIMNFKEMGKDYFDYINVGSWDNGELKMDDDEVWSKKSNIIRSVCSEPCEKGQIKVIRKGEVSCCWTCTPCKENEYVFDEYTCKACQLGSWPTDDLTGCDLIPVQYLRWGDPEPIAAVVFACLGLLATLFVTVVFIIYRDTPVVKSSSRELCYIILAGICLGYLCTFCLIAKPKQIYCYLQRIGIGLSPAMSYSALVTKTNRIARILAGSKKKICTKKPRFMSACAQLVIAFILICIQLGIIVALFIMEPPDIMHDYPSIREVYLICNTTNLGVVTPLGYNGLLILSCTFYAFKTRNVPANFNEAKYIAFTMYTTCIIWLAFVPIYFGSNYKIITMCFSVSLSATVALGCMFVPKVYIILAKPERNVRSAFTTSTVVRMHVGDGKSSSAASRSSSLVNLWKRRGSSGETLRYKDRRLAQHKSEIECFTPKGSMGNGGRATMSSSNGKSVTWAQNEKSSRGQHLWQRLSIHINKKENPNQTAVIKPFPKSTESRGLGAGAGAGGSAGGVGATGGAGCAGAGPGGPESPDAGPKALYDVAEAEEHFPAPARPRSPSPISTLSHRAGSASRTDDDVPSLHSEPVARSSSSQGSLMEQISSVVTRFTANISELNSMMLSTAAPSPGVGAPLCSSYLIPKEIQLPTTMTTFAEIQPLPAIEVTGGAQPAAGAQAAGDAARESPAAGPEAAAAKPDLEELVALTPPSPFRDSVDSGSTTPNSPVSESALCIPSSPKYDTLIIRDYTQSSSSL

[8] = molecular target: Metabotropic glutamate receptor 2 (Homo sapiens, UniProt Q14416); assay: Positive allosteric modulation activity at mGlu2 receptor
[9] = molecular target: Metabotropic glutamate receptor 1 (Homo sapiens, UniProt Q13255); assay: Positive allosteric modulation activity at mGlu1 receptor
[10] = molecular target: Metabotropic glutamate receptor 7 (Homo sapiens, UniProt Q14831); assay: Positive allosteric modulation activity at mGlu7 receptor
[11] = molecular target: Metabotropic glutamate receptor 4 (Homo sapiens) (UniProt Q14833); assay: Positive allosteric modulation activity at mGlu4 receptor relative to glutamate
[12] = molecular target: Metabotropic glutamate receptor 8 (Homo sapiens, UniProt O00222); assay: Positive allosteric modulation activity at mGlu8 receptor
[13] = molecular target: Metabotropic glutamate receptor 3 (Homo sapiens, UniProt Q14832); assay: Positive allosteric modulation activity at mGlu3 receptor
[14] = molecular target: Metabotropic glutamate receptor 6 (Homo sapiens, UniProt O15303); assay: Positive allosteric modulation activity at mGlu6 receptor
[15] = molecular target: T5, Metabotropic glutamate receptor 5; assay: Negative allosteric modulation activity at mGlu5 receptor
Target sequence in this assay (P41594 whole entry): as the sequence (P41594 whole entry) above

Sequence of Metabotropic glutamate receptor 1 (Q13255 whole entry): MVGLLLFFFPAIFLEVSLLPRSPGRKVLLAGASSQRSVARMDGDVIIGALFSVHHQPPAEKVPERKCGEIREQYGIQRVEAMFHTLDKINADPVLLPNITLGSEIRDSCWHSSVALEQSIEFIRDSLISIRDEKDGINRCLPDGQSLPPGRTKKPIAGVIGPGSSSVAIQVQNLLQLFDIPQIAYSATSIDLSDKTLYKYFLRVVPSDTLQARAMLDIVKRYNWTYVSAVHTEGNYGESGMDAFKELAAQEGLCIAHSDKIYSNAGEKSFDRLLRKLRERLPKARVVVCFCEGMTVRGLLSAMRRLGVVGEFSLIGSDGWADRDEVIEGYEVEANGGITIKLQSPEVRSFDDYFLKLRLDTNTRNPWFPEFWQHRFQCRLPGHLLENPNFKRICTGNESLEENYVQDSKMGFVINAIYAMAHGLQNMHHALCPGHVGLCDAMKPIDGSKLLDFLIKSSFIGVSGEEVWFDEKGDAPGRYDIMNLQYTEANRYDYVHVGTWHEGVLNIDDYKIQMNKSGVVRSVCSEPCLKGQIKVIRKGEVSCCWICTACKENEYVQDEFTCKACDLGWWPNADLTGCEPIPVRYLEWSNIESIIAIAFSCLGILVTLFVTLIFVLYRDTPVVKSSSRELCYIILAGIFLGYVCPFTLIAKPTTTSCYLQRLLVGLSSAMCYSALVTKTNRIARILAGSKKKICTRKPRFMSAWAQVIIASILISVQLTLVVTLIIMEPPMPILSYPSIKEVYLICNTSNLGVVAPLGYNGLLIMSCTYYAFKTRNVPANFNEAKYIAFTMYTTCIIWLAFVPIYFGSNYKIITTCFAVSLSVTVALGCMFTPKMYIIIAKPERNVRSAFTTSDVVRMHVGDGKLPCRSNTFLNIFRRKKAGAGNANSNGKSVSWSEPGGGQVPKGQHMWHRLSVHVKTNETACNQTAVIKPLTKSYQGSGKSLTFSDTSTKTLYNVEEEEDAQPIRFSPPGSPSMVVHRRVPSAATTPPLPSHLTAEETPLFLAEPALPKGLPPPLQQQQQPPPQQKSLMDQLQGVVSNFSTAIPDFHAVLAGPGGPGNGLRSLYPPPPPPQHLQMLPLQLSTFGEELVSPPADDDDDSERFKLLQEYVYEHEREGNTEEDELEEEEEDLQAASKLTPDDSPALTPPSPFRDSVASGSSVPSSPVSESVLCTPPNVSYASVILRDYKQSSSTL
Sequence of Metabotropic glutamate receptor 7 (Q14831 whole entry): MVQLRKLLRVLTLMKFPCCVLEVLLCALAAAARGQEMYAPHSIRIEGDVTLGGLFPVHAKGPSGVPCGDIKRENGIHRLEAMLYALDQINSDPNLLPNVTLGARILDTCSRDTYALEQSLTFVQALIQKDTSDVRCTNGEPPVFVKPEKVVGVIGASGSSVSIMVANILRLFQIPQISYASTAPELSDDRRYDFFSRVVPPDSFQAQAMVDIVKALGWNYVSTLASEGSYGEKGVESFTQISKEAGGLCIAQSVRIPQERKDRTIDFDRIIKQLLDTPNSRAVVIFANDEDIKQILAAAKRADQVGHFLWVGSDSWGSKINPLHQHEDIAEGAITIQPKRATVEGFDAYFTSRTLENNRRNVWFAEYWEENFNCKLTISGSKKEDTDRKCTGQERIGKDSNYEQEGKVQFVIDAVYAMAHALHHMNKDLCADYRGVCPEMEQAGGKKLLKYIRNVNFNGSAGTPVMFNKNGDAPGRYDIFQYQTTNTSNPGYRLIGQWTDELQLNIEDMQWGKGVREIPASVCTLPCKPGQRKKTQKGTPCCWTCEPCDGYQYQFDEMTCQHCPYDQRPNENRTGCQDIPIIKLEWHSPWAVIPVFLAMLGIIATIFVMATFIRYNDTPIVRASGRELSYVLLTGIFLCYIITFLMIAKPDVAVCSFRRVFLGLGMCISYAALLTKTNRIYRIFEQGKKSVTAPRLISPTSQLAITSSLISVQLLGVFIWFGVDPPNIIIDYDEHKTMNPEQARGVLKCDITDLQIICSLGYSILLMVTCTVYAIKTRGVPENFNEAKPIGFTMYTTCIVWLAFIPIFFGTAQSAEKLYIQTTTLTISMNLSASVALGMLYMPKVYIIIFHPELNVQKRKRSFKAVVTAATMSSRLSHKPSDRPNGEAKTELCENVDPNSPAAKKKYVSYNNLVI

## Nc1sc(-c2ccccc2)cc1C(=O)c1ccccc1
[1]
  pKb: 6.36

## Nc1scc(-c2ccccc2F)c1C(=O)c1ccc(Cl)cc1
[1]
  pKb: 5.1

## Nc1scc(-c2cccc(C(F)(F)F)c2)c1C(=O)c1ccccc1
[1]
  pKb: 6.37

## O=C1C(=O)N(Cc2ccc(Br)cc2)c2ccccc21
[2]
  Emax: 74%
[3]
  Emax: 66%
[4]
  Emax: 82%

## O=C(O)c1cn(Cc2ccc(-c3ccccc3)cc2)c2cccc(F)c2c1=O
[5]
  EC50: 84 nM

## Cc1ccc(C#Cc2cncnc2)cc1
[6]
  EC50: 3300 nM
[7]
  Emax: 99%

## O=C(O)c1cn(Cc2ccc(-c3ccccc3)cc2)c2c(F)cccc2c1=O
[5]
  EC50: 380 nM

## CCOC(=O)c1c(N)sc2c1CCN(C(=O)OC(C)(C)C)CC2
[1]
  pKb: 6.07

## O=C(Nc1ccccn1)[C@]12C[C@H]1/C(=N\O)c1ccccc1O2
[8]
  EC50: > 30000 nM
[9]
  EC50: > 30000 nM
[10]
  EC50: > 30000 nM
[11]
  Emax: 121%
[12]
  EC50: > 30000 nM
[6]
  EC50: > 30000 nM
[13]
  EC50: > 30000 nM
[14]
  EC50: > 30000 nM

## Cn1cc(-c2ccc(Cn3cc(C(=O)O)c(=O)c4c(F)cccc43)c(F)c2)cn1
[5]
  EC50: 41 nM

## Cc1ccc(C(=O)c2c(N)sc3c2CCCC3)cc1
[1]
  pKb: 5.1

## Nc1sc(-c2cncnc2)c2c1C(=O)c1ccccc1-2
[1]
  pKb: 6.67

## Nc1sc2c(c1C(=O)c1ccc(Cl)cc1)CC1C=CC(C(F)(F)F)=CC1C2 (stereo unspecified)
[1]
  pKb: 5.11

## Cc1cccc(C#Cc2cncnc2)c1
[15]
  IC50: 7.5 nM

## CNc1ncc(C#Cc2ccccc2)cn1
[7]
  Emax: 128%

## Nc1scc(-c2cccc(F)c2)c1C(=O)c1ccc(Cl)cc1
[1]
  pKb: 5.88

## Nc1sc2c(c1C(=O)c1ccccc1)CCCCCC2
[1]
  pKb: 5.08

## C(#Cc1cncnc1)c1ccccc1
[15]
  IC50: 486 nM

## Nc1scc(-c2cc(C(F)(F)F)cc(C(F)(F)F)c2)c1C(=O)c1ccccc1
[1]
  pKb: 5.22

## O=C1C(=O)N(Cc2ccc(Oc3ccccc3)cc2)c2ccc(OC(F)(F)F)cc21
[2]
  Emax: 75%

## Nc1sc(-c2cncnc2)cc1C(=O)c1ccccc1
[1]
  pKb: 5.82

## CCOC(=O)c1nn(-c2cccc(Cl)c2)c(=O)c2c(N)scc12
[1]
  pKb: 8.3

## O=C(O)c1cn(Cc2ccc(-c3ccccc3)cc2)c2c(F)ccc(F)c2c1=O
[5]
  EC50: 270 nM

## Nc1scc(-c2cccc(C(F)(F)F)c2)c1C(=O)c1ccc(Cl)cc1
[1]
  pKb: 5.74

## Cn1cc(-c2ccc(CN3C(=O)C(=O)c4ccccc43)c(F)c2)cn1
[4]
  Emax: 65%

## COc1ccc(CN2C(=O)C(=O)c3cc(OC(F)(F)F)ccc32)cc1
[2]
  Emax: 91%

## CC(C)(C)OC(=O)N1CCc2sc(N)c(C(=O)c3ccc(Cl)cc3)c2CC1
[1]
  pKb: 5.23

## Nc1sc2c(c1C(=O)c1ccc(Cl)cc1)CC1C=C(C(F)(F)F)C=CC1C2 (stereo unspecified)
[1]
  pKb: 5.12

## Nc1scc(-c2cc(C(F)(F)F)cc(C(F)(F)F)c2)c1C(=O)c1ccc(Cl)cc1
[1]
  pKb: 5.46

## Nc1sc2c(c1C(=O)c1ccc(Cl)cc1)CCCC2
[1]
  pKb: 5.49

## Nc1sc2c(c1C(=O)c1ccc(Cl)cc1)CC1C=CC=CC1C2 (stereo unspecified)
[1]
  pKb: 6.01
